Key:
[1] = biological target: Arachidonate 5-lipoxygenase (Cavia porcellus); assay: In vitro 5-lipoxygenase inhibition in guinea pig PMNs was determined based on LTB4 production
[2] = biological target: Arachidonate 5-lipoxygenase (Cavia porcellus); assay: In vitro 5-lipoxygenase inhibition in guinea pig PMNs was determined based on 5-hydroxyeicosapentaenoic acid (5-HETE) production

`NC(=O)N(O)CC1=Cc2cc(Oc3ccccc3)ccc2SCC1` [N-hydroxy-N-[(7-phenoxy-2,3-dihydro-1-benzothiepin-4-yl)methyl]urea] showed an IC50 [1] of 0.13 µM and an IC50 [2] of 0.12 µM.

`NC(=O)N(O)CC1=Cc2cc(Oc3ccccc3)ccc2OCC1` [N-hydroxy-N-[(7-phenoxy-2,3-dihydro-1-benzoxepin-4-yl)methyl]urea] showed an IC50 [1] of 0.091 µM and an IC50 [2] of 0.089 µM.

With `NC(=O)N(O)CC1=Cc2ccc(Oc3ccccc3)cc2OCC1` [N-hydroxy-N-[(8-phenoxy-2,3-dihydro-1-benzoxepin-4-yl)methyl]urea] the IC50 [1] was 0.21 µM and the IC50 [2] was 0.18 µM.

For `CNC(=O)N(O)CC1=Cc2cc(Oc3ccc(F)cc3)ccc2OCC1` [N-{[7-(4-fluorophenoxy)-2,3-dihydro-1-benzoxepin-4-yl]methyl}-N-hydroxy-N'-methylurea], the IC50 [1] was 0.13 µM and the IC50 [2] was 0.1 µM.

In the case of `NC(=O)N(O)CC1=Cc2cc(Oc3ccc(F)cc3)ccc2OCC1` [N-{[7-(4-fluorophenoxy)-2,3-dihydro-1-benzoxepin-4-yl]methyl}-N-hydroxyurea], the IC50 [1] is reported as 0.098 µM and the IC50 [2] is reported as 0.091 µM.

Source: BindingDB's records for doi:10.1016/S0960-894X(01)80152-9 (1994)
